In experiment [1] the target is T1, COX-1 (Ovis aries, UniProt P05979).
T1 construct: purchased Cayman Chemical Co
T1 sequence (P05979 25-600): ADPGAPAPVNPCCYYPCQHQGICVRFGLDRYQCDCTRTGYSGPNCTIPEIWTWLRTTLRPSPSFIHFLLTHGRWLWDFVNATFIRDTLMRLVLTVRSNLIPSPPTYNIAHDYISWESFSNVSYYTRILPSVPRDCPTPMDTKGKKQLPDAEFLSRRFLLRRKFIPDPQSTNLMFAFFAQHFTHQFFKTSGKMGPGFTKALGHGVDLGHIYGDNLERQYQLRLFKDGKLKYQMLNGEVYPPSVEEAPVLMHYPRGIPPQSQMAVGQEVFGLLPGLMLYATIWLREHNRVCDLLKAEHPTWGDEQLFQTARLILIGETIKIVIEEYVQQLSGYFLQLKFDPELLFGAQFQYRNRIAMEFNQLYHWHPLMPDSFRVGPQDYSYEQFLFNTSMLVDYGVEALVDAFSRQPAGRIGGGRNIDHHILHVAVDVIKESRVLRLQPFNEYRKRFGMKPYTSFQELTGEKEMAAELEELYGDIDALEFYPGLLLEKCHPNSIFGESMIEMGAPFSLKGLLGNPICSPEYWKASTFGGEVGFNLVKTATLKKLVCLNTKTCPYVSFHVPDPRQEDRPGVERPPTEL
The experiment in a line: Inhibitory Activity on COX-1 (Assay Example 1). In kind it is biochemical. The settings on record: Table 1; read-out: COX Inhibiting Activity IC50, COX-1.

Experiment [2] addresses T2, COX-2 (Ovis aries, UniProt P79208).
T2 construct: purchased Cayman Chemical Co
T2 sequence (P79208 17-603): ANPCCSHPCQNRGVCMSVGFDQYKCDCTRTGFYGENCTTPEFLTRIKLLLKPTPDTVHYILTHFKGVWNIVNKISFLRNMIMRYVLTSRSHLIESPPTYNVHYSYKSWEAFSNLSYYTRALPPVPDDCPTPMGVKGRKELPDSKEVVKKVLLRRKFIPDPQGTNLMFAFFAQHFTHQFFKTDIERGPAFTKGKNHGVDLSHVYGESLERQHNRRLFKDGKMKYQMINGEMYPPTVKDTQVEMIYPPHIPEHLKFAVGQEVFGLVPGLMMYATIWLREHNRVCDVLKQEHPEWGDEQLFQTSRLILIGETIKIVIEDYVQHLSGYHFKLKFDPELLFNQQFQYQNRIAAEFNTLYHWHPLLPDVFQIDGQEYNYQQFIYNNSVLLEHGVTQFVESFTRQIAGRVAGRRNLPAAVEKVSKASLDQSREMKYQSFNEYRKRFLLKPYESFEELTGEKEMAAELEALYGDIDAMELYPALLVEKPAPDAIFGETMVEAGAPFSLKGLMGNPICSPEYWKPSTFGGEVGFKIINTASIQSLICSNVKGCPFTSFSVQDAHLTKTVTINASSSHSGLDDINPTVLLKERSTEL
The experiment in a line: Inhibitory Activity on COX-2 (Assay Example 1). In kind it is biochemical. The settings on record: Table 1; for IC50: read-out: COX Inhibiting Activity IC50, COX-2.

In experiment [3] the test system is rat adjuvant-induced arthritis. The experiment in a line: Inhibitory Action on Adjuvant Arthritis (1) (Assay Example 2). In kind it is in vivo, male Fisher rats. The settings on record: oral 5 mg/kg; for % Inhibition against Reduction of Gain in Body Weight / Edema Inhibition (%) Left Hind Paw (Non-inflamed Paw) / Edema Inhibition (%) Right Hind Paw (Inflamed Paw) / Inflammation Score Inhibition (%): days 0, 3, 7, 10, 14, 17, 20; for % Inhibition against Reduction of Gain in Body Weight / Edema Inhibition (%) Left Hind Paw (Non-inflamed Paw) / Edema Inhibition (%) Right Hind Paw (Inflamed Paw): measured day 21; for Inflammation Score Inhibition (%): scored day 21.
Experimental: Dry Mycobacterium butyricum killed organisms (Difco) were suspended in liquid paraffin to make the concentration 1% and the resulting suspension used as an adjuvant. The adjuvant (50 μl) was subplantarly injected to the right hind paw of male Fisher rats (5 to 6 animals per group) to raise arthritis. Each test compound was suspended in a 0.5% aqueous sodium carboxymethylcellulose (CMC-Na) solution and orally administered to the rats at a dose of 5 mg/kg on days 0, 3, 7, 10, 14, 17 and 20 (7 times in total) after the arthritis induction. On the 21st disease day the rats were measured for their body weight and the edema of their right and left hind paws. Simultaneously, systemic inflammatory states were scored. In addition, each of their spleen and thymus was taken out by excision to measure their wet weight and their relative weight per 100 g body weight was calculated.

The target in experiment [4] is T1, COX-1. Kind of experiment: Inhibitory Activity on COX-1 (Assay Example 5). The settings on record: Table 4; read-out: COX Inhibiting Activity IC50, COX-1. In kind it is biochemical.
Experiment [5] concerns adjuvant arthritis in rats. Kind of experiment: Inhibitory Action on Adjuvant Arthritis (2) (Assay Example 6). In kind it is in vivo, male F344/Du (Fisher) rats. The settings on record: oral 1 mg/5 ml/kg daily, 17 days; for % Inhibition against Reduction of Gain in Body Weight / Edema Inhibition (%) Left Hind Paw (Non-inflamed Paw) / Edema Inhibition (%) Right Hind Paw (Inflamed Paw): measured next day; for % Inhibition against Change in Relative Weight, Spleen / % Inhibition against Change in Relative Weight, Thymus: relative weight per 100 g body weight; for Inflammation Score Inhibition (%): scored next day. The method, then:
A 1% dry Mycobacterium tuberculosis H37 RA killed organism suspension in liquid paraffin was employed as an adjuvant. The adjuvant suspension (50 μl) was subplantarly administered to the right hind paw of male F344/Du (Fisher) rats (5 to 6 animals per group) to raise arthritis. […] The next day after the final administration, the rats were measured for their body weight and the edema of their right and left hind paws. Simultaneously, systemic inflammatory states were scored. In addition, each of their spleen and thymus was taken out by excision to measure their wet weight and their relative weight per 100 g body weight was determined.

The target of experiment [6] is T2, COX-2. The experiment in a line: Inhibitory Activity on COX-2 (Assay Example 5). Format: biochemical. The settings on record: Table 4; for IC50: read-out: COX Inhibiting Activity IC50, COX-2.
Experiment [7] concerns acetic acid writhing in male ddY mice. The experiment in a line: Analgesic Action in Acetic Acid Writhing (Assay Example 3). Format: in vivo. On the procedure:
A 0.7% acetic acid solution was intraperitoneally administered to male ddY mice at a dose of 10 ml/kg body weight. The frequency of writhing manifested was counted as an index of pains for a period of 10 minutes starting from the 10th minute after the administration. Ten or thirty minutes prior to the acetic acid administration, each test compound was orally given.
(In writhing tests, fewer writhes than in controls are read as antinociception.)

Setting [8] is: 7 times, relative weight per 100 g body weight, day 21.

Consider `CS(=O)(=O)c1ccc(-n2nc(C(F)(F)F)cc2-c2nc3ccccc3s2)cc1` [Example 8, 2-[1-(4-Methylsulfonylphenyl)-3-trifluoromethyl-1H-pyrazol-5-yl]benzothiazole], for which the IC50 – broadly, the concentration at which inhibition is half-maximal – at COX-1 [1] was > 100000 nM; at COX-2 [2], 340 nM. Also, the “COX-1/COX-2 (ratio of IC50 values)” value at COX-2 [2] is on record as > 294.

As to `CS(=O)(=O)c1ccc(-n2nc(C(F)(F)F)cc2-c2nc3ccc(Cl)cc3s2)cc1` [Example 10, 6-Chloro-2-[1-(4-methylsulfonylphenyl)-3-trifluoromethyl-1H-pyrazol-5-yl]benzothiazole], the IC50 on COX-1 [1] is > 100000 nM; on COX-2 [2], 540 nM. Besides, the “COX-1/COX-2 (ratio of IC50 values)” value on COX-2 [2] was > 185.

`COc1ccc2nc(-c3cc(C(F)(F)F)nn3-c3ccc(S(N)(=O)=O)cc3)sc2c1` [Example 11, 4-[5-(6-Methoxybenzothiazol-2-yl)-3-trifluoromethyl-1H-pyrazol-1-yl]benzenesulfonamide]: the IC50 at COX-1 [1] is > 100000 nM; at COX-2 [2], 480 nM. Further, the “COX-1/COX-2 (ratio of IC50 values)” value at COX-2 [2] is reported as > 208.

As for `NS(=O)(=O)c1ccc(-n2nc(C(F)(F)F)cc2-c2nc3ccc(F)cc3s2)cc1` [Example 13, 4-[5-(6-Fluorobenzothiazol-2-yl)-3-trifluoromethyl-1H-pyrazol-1-yl]benzenesulfonamide], the IC50 at COX-1 [1] was 47000 nM. Also, at COX-2 [2], the “COX-1/COX-2 (ratio of IC50 values)” value is 142 and the IC50 was determined as 330 nM. Moreover, in experiment [3] (setting [8]), the “% Inhibition against Change in Relative Weight, Spleen” value was -10.5% and the “% Inhibition against Change in Relative Weight, Thymus” value is 71.3%. Moreover, in experiment [3], the “% Inhibition against Reduction of Gain in Body Weight” value (“% Inhibition against Reduction” for short) is given as 48.6%, the “Edema Inhibition (%) Left Hind Paw (Non-inflamed Paw)” value was determined as 76%, the “Edema Inhibition (%) Right Hind Paw (Inflamed Paw)” value (“Edema Inhibition (%) Right Hind Paw” for short) was 71% and the “Inflammation Score Inhibition (%)” value is 78%.

With `NS(=O)(=O)c1ccc(-n2nc(C(F)(F)F)cc2-c2nc3cccc(F)c3s2)cc1` [Example 18, 4-[5-(7-Fluorobenzothiazol-2-yl)-3-trifluoromethyl-1H-pyrazol-1-yl]benzenesulfonamide], the IC50 on COX-1 [4] was > 100000 nM. Further, in experiment [5], the “% Inhibition against Reduction” value is 75%; the “Edema Inhibition (%) Left Hind Paw (Non-inflamed Paw)” value amounted to 116%; the “Edema Inhibition (%) Right Hind Paw” value is reported as 84%; the “% Inhibition against Change in Relative Weight, Spleen” value came out at 48%. In experiment [5], the “% Inhibition against Change in Relative Weight, Thymus” value is 48% and the “Inflammation Score Inhibition (%)” value was determined as 91%. On COX-2 [6], the “COX-1/COX-2 (ratio of IC50 values)” value is > 625 and the IC50 turned out to be 160 nM.

Turning to `CS(=O)(=O)c1ccc(-n2nc(C(F)F)cc2-c2nc3cccc(F)c3s2)cc1` [Example 28, 7-Fluoro-2-[1-(4-methylsulfonylphenyl)-3-difluoromethyl-1H-pyrazol-5-yl]benzothiazole], the IC50 on COX-1 [4] is > 100000 nM. Also, at COX-2 [6], the “COX-1/COX-2 (ratio of IC50 values)” value is reported as > 1190 and the IC50 was determined as 84 nM.

As for `NS(=O)(=O)c1ccc(-n2nc(C(F)F)cc2-c2nc3cccc(F)c3s2)cc1` [Example 29, 4-[5-(7-Fluorobenzothiazol-2-yl)-3-difluoromethyl-1H-pyrazol-1-yl]benzenesulfonamide], the 50% inhibitory concentration (IC50) at COX-1 [4] is > 100000 nM. In experiment [5], the “% Inhibition against Reduction” value stood at 73%; the “Edema Inhibition (%) Left Hind Paw (Non-inflamed Paw)” value was 124%; the “Edema Inhibition (%) Right Hind Paw” value is reported as 82%; the “% Inhibition against Change in Relative Weight, Spleen” value came out at 25%. In experiment [5], the “% Inhibition against Change in Relative Weight, Thymus” value is recorded as 80% and the “Inflammation Score Inhibition (%)” value is 86%. On COX-2 [6], the “COX-1/COX-2 (ratio of IC50 values)” value is > 8333 and the concentration for half-maximal inhibition (IC50) is 12 nM.

Take `Cc1cccc2nc(-c3cc(C(F)F)nn3-c3ccc(S(N)(=O)=O)cc3)sc12` [Example 31, 4-[3-Difluoromethyl-5-(7-methylbenzothiazol-2-yl)-1H-pyrazol-1-yl]benzenesulfonamide]: the values for the concentration for half-maximal inhibition (IC50) at COX-1 [4] and on COX-2 [6] were > 100000 nM and 240 nM, respectively. Also, the “COX-1/COX-2 (ratio of IC50 values)” value at COX-2 [6] is > 417.

Turning to `Cc1ccc2nc(-c3cc(C(F)(F)C(F)(F)F)nn3-c3ccc(S(C)(=O)=O)cc3)sc2c1` [Example 32, 6-Methyl-2-[1-(4-methylsulfonylphenyl)-3-pentafluoroethyl-1H-pyrazol-5-yl]benzothiazole], the IC50 on COX-1 [4] is > 100000 nM. Also, on COX-2 [6], the “COX-1/COX-2 (ratio of IC50 values)” value was > 270 and the IC50 came out at 370 nM.

Take `Cc1ccc2nc(-c3cc(C(F)(F)C(F)(F)F)nn3-c3ccc(S(N)(=O)=O)cc3)sc2c1` [Example 33, 4-[5-(6-Methylbenzothiazol-2-yl)-3-pentafluoroethyl-1H-pyrazol-5-yl]benzenesulfonamide]: the IC50 on COX-1 [4] is > 100000 nM. Moreover, at COX-2 [6], the “COX-1/COX-2 (ratio of IC50 values)” value is listed as > 769 and the IC50 amounted to 130 nM.

As for `NS(=O)(=O)c1ccc(-n2nc(C(F)F)cc2-c2nc3c(F)cccc3s2)cc1` [Example 41], on COX-1 [4], the IC50 was > 100000 nM. For the same molecule, on COX-2 [6], the “COX-1/COX-2 (ratio of IC50 values)” value is reported as > 417 and the IC50 stood at 240 nM.

Regarding `COc1ccc2c(c1)c(CC(=O)O)c(C)n2C(=O)c1ccc(Cl)cc1` [Indomethacin, reference compound], in experiment [3], the “% Inhibition against Reduction” value is 19.8%, the “Edema Inhibition (%) Left Hind Paw (Non-inflamed Paw)” value was 75%, the “Edema Inhibition (%) Right Hind Paw” value came to 43% and the “Inflammation Score Inhibition (%)” value is on record as 51%. Also, the “% Inhibition of Writhing Response” value in experiment [7] (po, 3 mg/kg) was 28%.

On to `CS(=O)(=O)c1ccc(-n2nc(C(F)(F)F)cc2-c2ccc(F)cc2)cc1` [SC-58125, 5-(4-fluorophenyl)-1-(4-methylsulfonylphenyl)-3-trifluoromethyl-1H-pyrazole, reference compound], for which, in experiment [3], the “% Inhibition against Reduction” value came out at 96.9%, the “Edema Inhibition (%) Left Hind Paw (Non-inflamed Paw)” value worked out at 95%, the “Edema Inhibition (%) Right Hind Paw” value came to 76% and the “Inflammation Score Inhibition (%)” value is recorded as 96%. The “% Inhibition of Writhing Response” value in experiment [7] (30 mg/kg oral, Administration Point 1: 10 minutes prior to acetic acid) came out at 22%.

As for `Cc1ccc(-c2cc(C(F)(F)F)nn2-c2ccc(S(N)(=O)=O)cc2)cc1` [YM-177, 4-[5-(4-methylphenyl)-3-trifluoromethyl-1H-pyrazol-1-yl]benzenesulfonamide, reference compound], in experiment [5], the “% Inhibition against Reduction” value turned out to be 21%, the “Edema Inhibition (%) Left Hind Paw (Non-inflamed Paw)” value was 60%, the “Edema Inhibition (%) Right Hind Paw” value turned out to be 41% and the “Inflammation Score Inhibition (%)” value is 49%. Also, in experiment [3], the “% Inhibition against Reduction” value stood at 25.5%, the “Edema Inhibition (%) Left Hind Paw (Non-inflamed Paw)” value was 65%, the “Edema Inhibition (%) Right Hind Paw” value was found to be 37% and the “Inflammation Score Inhibition (%)” value is recorded as 44%. Moreover, the “% Inhibition of Writhing Response” value in experiment [7] (po, 30 mg/kg) turned out to be 17%.

For the origin of these results see patent US6136831A, “Pyrazole derivatives and COX inhibitors containing them” (Grelan Pharmaceutical Co., Ltd., priority 1997, dated 2000).
